# Assay results from patent US12491182B2, “Polymorphs of triazole antifungal compound PC945” (Pulmocide Limited, priority 2019, dated 2025).
# Where “and” joins values, the source holds several entries; their conditions need not be identical. Identical values can stand only once. Marks after values point to notes of the source that are not given here.
# What was measured:
# [1] = Comparative pharmacokinetic profiling of Forms 1 and 2 by inhalation administration to rats; format: in vivo, male RccHan:WIST rat; settings: for Drug Concentration in Animal by No. (plasma): individual animals
# From the text: A study was undertaken to compare the time-course of unchanged drug concentrations in plasma following a single inhalation dose of either Form 1 or Form 2 in rats.
# The male RccHan™:WIST rat was considered a suitable species and strain because of its acceptance by regulatory agencies. The inhalation route of administration was chosen to simulate the conditions of clinical administration. A total of 14 of animals (six animals per group with two spare animals), 10 to 12 weeks of age and weighing 306 to 341 g at the start of drug treatment, were used in the study. Treatment consisted of a single 2 hour inhalation exposure with a nebulised formulation of either micronised Form 1 (98.94% purity) to Group 1 animals or micronised Form 2 (98.10% purity) to Group 2 animals. The pharmacokinetic parameters of the two polymorphic forms were determined to support pharmacology and toxicology studies in animals and clinical studies in man.
# Suspensions were manufactured by first preparing a concentrated solution of the surfactants (wetting solution) and a saline solution. These were then used to make the vehicle. A saline solution was prepared as follows. Sodium chloride (50 g) was weighed into a 5000 mL volumetric flask, made up to volume with water, stirred with a magnetic stirrer for 10 min and then passed through a 0.22 μm membrane filter. Wetting solution was prepared as follows. Lipoid S100 (10 g) was weighed into a 2000 mL Duran bottle, 1000 g of propylene glycol was added and the mixture was stirred on a Silverson mixer equipped with a 1″ high shear screen for 1 min at 8000 rpm and then passed through a 0.22 μm membrane filter. Vehicle was prepared as follows. The wetting solution (500 mL) was transferred into a 5000 mL volumetric flask, made to volume with saline solution, stirred with a magnetic stirrer for 10 min and then passed through a 0.22 μm membrane filter.
# A 1000 mL batch of 4 mg/mL suspension of Compound I was prepared as follows. Compound I (4.00 g) was weighed into a small beaker, 100 mL of wetting solution was added and the mixture was stirred with a Silverson mixer equipped with a 1″ high shear screen for 5 min at 8000 rpm. The mixture was then transferred into a 5000 mL Duran bottle using saline solution and stirred using a Silverson mixer equipped with a 1″ high shear screen for 5 min at 8000 rpm, after which it was stored between 2 and 8° C. Higher or lower strength suspensions (range 0.2 to 20 mg/mL) were prepared by adjusting the input weight of API as appropriate for higher mg/mL suspensions or by further diluting with vehicle for lower mg/mL suspensions. All formulations were magnetically stirred for at least 30 min, and assessed visually prior to administration.
# Rats were acclimatised to the inhalation dosing procedure for three consecutive days prior to dosing. Animals were treated with the test substance by aerosol inhalation administration for 120 min via snout only exposure, at a target aerosol concentration of 25.2 μg/L. The estimations of inhaled dose from an exposure duration of 2 hr and an assumed body weight of 300 g were calculated using the formula:
# [formula] where: C is the aerosol concentration (μg/L); RMV is the respiratory minute volume (L/min); D is the duration of exposure (120 mins) and BW is the group mean body weight (kg). The mean achieved aerosol concentrations, estimated inhaled dose and particle size distribution (PSD) summary data are presented below. (Table 14).
# Venous blood samples (0.3 mL) were taken from the tail vein of animals and samples collected after dosing (2 hr from the start of dose administration) and thereafter at times 3, 4, 6, 8, 12, 24, 28, 32, 36 and 48 hr following treatment. Samples were treated with K2EDTA anticoagulant, spun at 2000 g for 10 min at 4° C. and then stored frozen (−20° C.±10) whilst awaiting analysis. Plasma samples were subsequently analysed for Compound I by LGC using a validated LC-MS/MS method. […]
# [2] = Equilibration of Forms 1 and 2, singularly and as mixtures, in MEK and THF alone and with 5% water; format: physicochemical; settings: 5-10 °C, both equilibration temperatures
# From the text: The influence of the initial polymorphic composition on the fate of samples was investigated by equilibration of the either the single polymorphs or an equal mixture of both in anhydrous MEK and THF as well as in the same solvents doped with 5% water.
# The results obtained (Table 13) reveal that in anhydrous media the two polymorphs retain their structural integrity, if present singularly (Table 13, Entries 1, 2, 4 and 5). […] (Table 13, Entry 4) which may be attributable to the presence of traces of moisture in a highly hygroscopic solvent.
# The results observed when 5% water was admixed to the two solvents indicate that the predominance of the two forms reversed under these conditions, taking kinetic factors into account. In aqueous MEK (5% water) the single polymorphs were again unchanged for the duration of the experiment (Table 13, Entries 7 and 8). In contrast, the binary polymorphic mixture converted into Form 1 in this medium (Table 13, Entry 9). In aqueous THF (5% water) the dominance of Form 1 as the most preferred polymorph was especially evident. In this environment the suspension of Form 1 remained unchanged (Table 13, Entry 10), consistent with the outcome observed for aq MEK under the same conditions.
# However, in THF doped with 5% water, both the suspension comprising the binary mixture, as well as that composed of the Form 2 polymorph alone, were transformed into suspensions containing only Form 1 (Table 13, Entries 11 and 12).
structure (smiles),measurement,setting,value
"Cc1cc(N2CCN(c3ccc(C(=O)Nc4ccc(F)cc4)cc3)CC2)ccc1OC[C@@H]1CO[C@@](Cn2cncn2)(c2ccc(F)cc2F)C1 [Form 1, 4-(4-(4-(((3R,5R)-5-((1H-1,2,4-triazol-1-yl)methyl)-5-(2,4-difluorophenyl)tetrahydrofuran-3-yl)methoxy)-3-methylphenyl)piperazin-1-yl)-N-(4-fluorophenyl)benzamide]",Tmax,"[1]; RccHan:WIST, rat, plasma, inhaled or intranasal, male rats, single 2 hr inhalation, nominal dose 2.2 mg/kg, from start of exposure, read-out: Tmax",6 h
same,Drug Concentration in Animal by No. (plasma),"[1]; male rats, inhalation, nominal 2.2 mg/kg, 3 hr from start of exposure",5.31 ng/mL and 4.35 ng/mL and 2.41 ng/mL
same,Drug Concentration in Animal by No. (plasma),"[1]; male rats, inhalation, nominal 2.2 mg/kg, 4 hr from start of exposure",4.73 ng/mL and 6.32 ng/mL and 3.78 ng/mL
same,Drug Concentration in Animal by No. (plasma),"[1]; male rats, inhalation, nominal 2.2 mg/kg, 6 hr from start of exposure",5.38 ng/mL and 3.97 ng/mL and 5.49 ng/mL
same,Drug Concentration in Animal by No. (plasma),"[1]; male rats, inhalation, nominal 2.2 mg/kg, 8 hr from start of exposure",3.28 ng/mL and 2.88 ng/mL
same,Drug Concentration Mean (plasma),"[1]; male rats, inhalation, nominal 2.2 mg/kg, 8 hr, group mean",3.08 ng/mL
same,Drug Concentration in Animal by No. (plasma),"[1]; male rats, inhalation, nominal 2.2 mg/kg, 12 hr from start of exposure",4.05 ng/mL and 3.64 ng/mL
same,Drug Concentration in Animal by No. (plasma),"[1]; male rats, inhalation, nominal 2.2 mg/kg, 24 hr from start of exposure",2.47 ng/mL and 3.00 ng/mL and 3.85 ng/mL and 2.75 ng/mL and 2.02 ng/mL and 3.03 ng/mL
same,Drug Concentration in Animal by No. (plasma),"[1]; male rats, inhalation, nominal 2.2 mg/kg, 28 hr from start of exposure",1.85 ng/mL and 2.22 ng/mL and 3.92 ng/mL and 1.87 ng/mL and 2.04 ng/mL
same,Drug Concentration in Animal by No. (plasma),"[1]; male rats, inhalation, nominal 2.2 mg/kg, 32 hr from start of exposure",1.36 ng/mL and 1.85 ng/mL and 2.79 ng/mL and 1.66 ng/mL and 2.20 ng/mL and 1.32 ng/mL
same,Drug Concentration Mean (plasma),"[1]; male rats, inhalation, nominal 2.2 mg/kg, 32 hr, group mean",1.86 ng/mL
same,Drug Concentration in Animal by No. (plasma),"[1]; male rats, inhalation, nominal 2.2 mg/kg, 36 hr from start of exposure",1.21 ng/mL and 1.36 ng/mL and 1.74 ng/mL and 1.70 ng/mL and 1.01 ng/mL and 1.80 ng/mL
same,Drug Concentration Mean (plasma),"[1]; male rats, inhalation, nominal 2.2 mg/kg, 36 hr, group mean",1.47 ng/mL
same,Drug Concentration in Animal by No. (plasma),"[1]; male rats, inhalation, nominal 2.2 mg/kg, 48 hr from start of exposure",1.10 ng/mL and 1.45 ng/mL and 1.28 ng/mL and 1.26 ng/mL and 1.19 ng/mL
same,Drug Concentration Mean (plasma),"[1]; male rats, inhalation, nominal 2.2 mg/kg, IAD (immediately after dosing), group mean",1.11 ng/mL
same,Drug Concentration in Animal by No. (plasma),"[1]; male rats, inhalation, nominal 2.2 mg/kg, IAD (immediately after dosing)",1.16 ng/mL and 0.826 ng/mL and 1.35 ng/mL
same,AUCt dose normalised,"[1]; male rats, inhalation, AUCt of Form 2 normalised to dose achieved for Form 1 (2.48 mg/kg), 2.48 mg/kg",122 ng·h/mL
same,time up to which plasma concentrations remained quantifiable,"[1]; male rats, inhalation, after the start of exposure (last sampling time)",48 h
same,Cmax,"[1]; male, RccHan:WIST, rat, plasma, inhaled or intranasal, 2.2 mg/kg, single 2 hr inhalation of nebulised aqueous suspension, nominal dose 2.2 mg/kg, read-out: Cmax (maximum mean plasma concentration)",4.95 ng/mL
same,AUC(0-t),"[1]; male, RccHan:WIST, rat, plasma, inhaled or intranasal, 2.2 mg/kg, single 2 hr inhalation, nominal dose 2.2 mg/kg, 0-48 hr",0.122 µg·h/mL
same,concentration at 3 h,"[1]; male, RccHan:WIST, rat, plasma, inhaled, 2.2 mg/kg, inhalation, nominal 2.2 mg/kg, 3 hr, group mean, read-out: Drug Concentration Mean (plasma)",4.02 ng/mL
same,concentration at 4 h,"[1]; male, RccHan:WIST, rat, plasma, inhaled, 2.2 mg/kg, inhalation, nominal 2.2 mg/kg, 4 hr, group mean, read-out: Drug Concentration Mean (plasma)",4.94 ng/mL
same,concentration at 6 h,"[1]; male, RccHan:WIST, rat, plasma, inhaled, 2.2 mg/kg, inhalation, nominal 2.2 mg/kg, 6 hr, group mean, read-out: Drug Concentration Mean (plasma)",4.95 ng/mL
same,concentration at 12 h,"[1]; male, RccHan:WIST, rat, plasma, inhaled, 2.2 mg/kg, inhalation, nominal 2.2 mg/kg, 12 hr, group mean, read-out: Drug Concentration Mean (plasma)",3.85 ng/mL
same,concentration at 24 h,"[1]; male, RccHan:WIST, rat, plasma, inhaled, 2.2 mg/kg, inhalation, nominal 2.2 mg/kg, 24 hr, group mean, read-out: Drug Concentration Mean (plasma)",2.85 ng/mL
same,concentration at 28 h,"[1]; male, RccHan:WIST, rat, plasma, inhaled, 2.2 mg/kg, inhalation, nominal 2.2 mg/kg, 28 hr, group mean, read-out: Drug Concentration Mean (plasma)",2.38 ng/mL
same,concentration at 48 h,"[1]; male, RccHan:WIST, rat, plasma, inhaled, 2.2 mg/kg, inhalation, nominal 2.2 mg/kg, 48 hr, group mean, read-out: Drug Concentration Mean (plasma)",1.26 ng/mL
same,Form by XRPD Post Equilibration,[2]; MEK (anhydrous),1
same,Form by XRPD Post Equilibration,[2]; MEK/5% Water,1
same,Form by XRPD Post Equilibration,"[2]; THF (anhydrous), Form 1 input: some evidence of Form 2 at 10 °C",1^b
same,Form by XRPD Post Equilibration,[2]; THF/5% Water,1
